{
  "source": "patent US9072749B2",
  "about": "“Treatment of age-related macular degeneration” (priority 2007, dated 2015)",
  "origin": "cited, not measured here",
  "key": {"[1]": {"tested_on": "choroidal neovascularization", "conditions": "in vivo"}, "dogs": {"tested_on": "dogs", "conditions": "oral dosing in dogs"}, "[2]": {"conditions": "oral dosing in dogs"}, "D1/D5 receptor": {"tested_on": "D1/D5 receptor", "conditions": "anesthetized rabbits"}},
  "note": "Like-named read-outs stand apart in the source and are kept apart here.",
  "data": [
    {"compound": "CC1=C(/C=C/C(C)=C/C=C/C(C)=C/C=C/C=C(C)/C=C/C=C(C)/C=C/C2=C(C)C(=O)C(O)CC2(C)C)C(C)(C)CC(O)C1=O", "note": "(stereo not shown) [Astaxanthin]", "values": [
      {"measurement": "choroidal neovascularization", "setting": "[1]", "value": "inhibit choroidal neovascularization"}
    ]},
    {"compound": "Oc1ccc(C2CNCCc3c2cc(O)c(O)c3Cl)cc1", "note": "(stereo not shown) [Fenoldopam]", "values": [
      {"measurement": "duration of drug blood level and increase in renal blood flow", "setting": "dogs; FIGS. 2a and 2b", "value": "relatively short duration"},
      {"measurement": "plasma fenoldopam (drug blood) level", "setting": "[2]", "value": "rapidly gives high drug blood level"}
    ]},
    {"compound": "CCNC(=O)Oc1ccc([C@H]2CNCCc3c2cc(OC(=O)NCC)c(OC(=O)NCC)c3Cl)cc1", "note": "[SKF 10508]", "values": [
      {"measurement": "time for which the increase in renal blood flow is sustained", "setting": "dogs; FIGS. 3A and 3B", "value": "greater than 6 hours"},
      {"measurement": "plasma fenoldopam (drug blood) level", "setting": "[2]", "value": "more gradual increase of drug blood level"},
      {"measurement": "plasma fenoldopam (drug blood) level", "setting": "[2]; listed as SK&F 105058", "value": "release fenoldopam slowly after oral absorption"}
    ]},
    {"compound": "NCCc1ccc(O)c(O)c1", "note": "[dopamine]", "values": [
      {"measurement": "choroidal vasodilation", "setting": "D1/D5 receptor", "value": "caused choroidal vasodilation"}
    ]}
  ]
}
